Data from patent US6407239B1, “Aromatic esters of camptothecins and methods to treat cancers” (priority 1999, dated 2002).

How the values were obtained:
14 human cell lines = experiment: compounds tested against 14 human cell lines (in vitro); type: cell-based
Text: What is interesting from these in vitro data is that the activity of these esters is related to the substituents on their side aromatic rings. […] Thus, the difference in activity among the esters of the present invention are due to the different substituents on their side aromatic ring.

[1] = cited from earlier work
[2] = cited from earlier work; remark: listed apart in the source
[3] = cited from earlier work; remark: listed apart in the source
[4] = animal models; cited from earlier work
mouse leukemia L 1210 = conditions: initial test; cited from earlier work
[5] = patients, early trials; cited from earlier work

## 20-O-phenyl-9-nitrocamptothecin [CZ176]
14 human cell lines
  activity (response of 14 human cell lines): do not show any activity

## CC[C@@]1(O)C(=O)OCc2c1cc1n(c2=O)Cc2cc3c([N+](=O)[O-])cccc3nc2-1 [9-nitrocamptothecin]
[1]
  found as the lactone form in human plasma: 5%
[2]
  present as lactone form in mice plasma: about 50%

## CC[C@@](O)(C(=O)[O-])c1cc2n(c(=O)c1CO)Cc1cc3ccccc3nc1-2.[Na+] [CPT sodium carboxylate]
[3]
  solubility in water: water-soluble
[4]
  potency relative to the parent camptothecin: 10-20%

## CC[C@@]1(OC(=O)c2ccccc2)C(=O)OCc2c1cc1n(c2=O)Cc2cc3ccccc3nc2-1 [CZ222]
14 human cell lines
  activity (response of 14 human cell lines): do not show any activity

## CC[C@@]1(O)C(=O)OCc2c1cc1n(c2=O)Cc2cc3ccccc3nc2-1 [Camptothecin]
Mouse leukemia L 1210
  activity against mouse leukemia L 1210: showed good activity
[5]
  anticancer activity in human clinical trials: anticancer activity was not found
  toxicity in human clinical trials: severe toxicity was observed
